From patent publication US10005756B2, “Pyrrolidinone derivatives as MetAP-2 inhibitors” (Merck Patent GmbH, priority 2014, dated 2018)

What follows are compounds tested on human umbilical vein endothelial cells (HUVEC) (assay: HUVEC proliferation quantified by BrdU incorporation). Settings: HUVEC proliferation, BrdU incorporation, read-out: IC50 HUVEC.
Format: cell-based
Procedure: Determination of the Proliferation Inhibition by Inhibitors of Methionine Aminopeptidase 2 in the BrdU Proliferation Test (Cellular Assay)
After detachment of the cells by means of trypsin/EDTA, the number of living cells is determined, and the cells are sown in a density of 1000 cells per cavity in a total volume of 175 μl (cavities are coated in advance either with supplemented culture medium for 1-2 hours at 37° C. or with 1.5% gelatine for 0.5-2 hours at 37° C.). After cultivation for 24 hours, the test substances are added in various concentrations (for example final concentrations 30 μM to 0.03 nM in 10-fold dilution steps) and a volume of 25 μl. The DMSO concentration is kept constant at 0.3%. […] To this end, the cells are treated with a fixative for 30 min at room temperature and subsequently incubated with a peroxidase-labelled anti-BrdU antibody (diluted 1:100 in antibody dilution buffer) for 60 min at room temperature. […] The colour development is stopped after 15 min by addition of 25 μl of a 1M sulfuric acid solution. […] The controls used are cavities containing DMSO-treated cells (100% control) or empty cavities (blank value).
HUVEC Proliferation Quantified by BrdU Incorporation
HUVEC Means Human Umbilical Vein Endothelial Cells
HUVEC proliferation is measured after a 5 day incubation period using incorporation of BrdU as a measure of cell cycle activity. Cells are incubated in the presence or absence of test substances. During the last 18 to 24 hours of the incubation period BrdU is added to the medium. BrdU is incorporated into the DNA as the cells progress through S-phase (DNA synthesis) of the cell cycle. The cells are fixed and the amount of BrdU incorporated can be quantified using a commercial ELISA for detection of BrdU.
HUVEC are routinely cultured in EGM MV medium and used between passages 3 and 8.
All substances are run in triplicate.
Reference compounds are run in every assay.
Data is analyzed using the Assay Explorer program. Briefly, the blank is subtracted from all values, the triplicates are averaged and normalized to the untreated. EC50 is determined from a 4-parameter general sigmoidal curve (Hill fit y=(s0−slnf)/(1+(x/AC50)^nHill)+slnf) in Assay Explorer, Symyx). The processed data (EC50 or % Effect if no EC50 if reached, Efficacy) is uploaded directly from Assay Explorer to the MSRDB.
With O=C(NCc1cc(F)cc(Cl)c1)C1=CCN(c2ccccc2)C1=O [Compound A12] the IC50 was 3300 nM.

Same assay, conditions: HUVEC, read-out: IC50 HUVEC
O=C1Cc2cc(N3CC[C@](O)(C(=O)NCc4cc(F)cc(F)c4)C3=O)ccc2N1 [Compound A66] gave an IC50 of 76 nM.
O=C(NCc1cc(F)cc(Cl)c1)[C@@]1(O)CCN(c2cnc(Cl)c(F)c2)C1=O [Compound A4] showed an IC50 of 11000 nM.
In the case of CC(C)(C)OC(=O)C(CCC(N)=O)NC(=O)c1cc2cc(N3CC[C@](O)(C(=O)NCc4cc(F)cc(Cl)c4)C3=O)ccc2[nH]1 (stereo in doubt) [Compound A27], the IC50 is reported as 480 nM.
For O=C(NCc1cc(F)cc(Cl)c1)C1(O)CCN(c2cccc(O)c2)C1=O (stereo not shown) [Compound A18], the IC50 was 180 nM.
O=C(NCc1cc(F)cc(Cl)c1)C1(O)C(=O)N(c2ccccc2)CC1O (stereo not shown) [Compound A13] was tested, and the IC50 was 2500 nM.
CS(=N)(=O)c1cccc(N2CCC(O)(C(=O)NCc3cc(F)cc(Cl)c3)C2=O)c1 (stereo not shown) [Compound A71] showed an IC50 of 1400 nM.
For O=C(NCc1cc(F)cc(F)c1)[C@@]1(O)CCN(c2ccc3[nH]ncc3c2)C1=O [Compound A75, (S)-3-Hydroxy-1-(1H-indazol-5-yl)-2-oxo-pyrrolidine-3-carboxylic acid 3,5-difluoro-benzylamide], the IC50 was 42 nM.
NC(=O)c1cc2cc(N3CC[C@@](O)(C(=O)NCc4cc(F)cc(F)c4)C3=O)ccc2[nH]1 (stereo in doubt) [Compound A86] gave an IC50 of 71 nM.
With O=CNCCCCNC(=O)c1cc2cc(N3CC[C@](O)(C(=O)NCc4cc(F)cc(Cl)c4)C3=O)ccc2[nH]1 [Compound A68] the IC50 was 110 nM.
For C[S@@](=N)(=O)c1ccc(N2CC[C@](O)(C(=O)NCc3cc(F)cc(Cl)c3)C2=O)cc1 [Compound A69], the IC50 was 300 nM.
With O=C(NCc1cc(F)cc(F)c1)[C@@]1(O)CCN(c2cnc3[nH]cc(Cl)c3c2)C1=O [Compound A79] the IC50 was 6.5 nM.
With O=C(NCc1cc(F)cc(Cl)c1)[C@@]1(O)CCN(c2cnc3[nH]cc(I)c3c2)C1=O [Compound A34] the IC50 was 6.7 nM.
Compound NC(=O)CC[C@H](NC(=O)c1cc2cc(N3CC[C@](O)(C(=O)NCc4cc(F)cc(Cl)c4)C3=O)ccc2[nH]1)C(=O)O [Compound A39] has an IC50 of 3100 nM.
In the case of NCCCNC(=O)c1cc2cc(N3CC[C@](O)(C(=O)NCc4cc(F)cc(Cl)c4)C3=O)ccc2[nH]1 [Compound A40], the IC50 is reported as 200 nM.
With NC(=O)CC[C@H](NC(=O)c1cc2cc(N3CC[C@](O)(C(=O)NCc4cc(F)cc(Cl)c4)C3=O)ccc2[nH]1)C(=O)N[C@@H](Cc1ccccc1)C(N)=O [Compound A52] the IC50 was 4400 nM.
In the case of C[S@](=N)(=O)c1ccc(N2CC[C@](O)(C(=O)NCc3cc(F)cc(Cl)c3)C2=O)cc1 [Compound A70], the IC50 is reported as 700 nM.
Cc1nc(-c2cc3cc(N4CC[C@](O)(C(=O)NCc5cc(F)cc(Cl)c5)C4=O)ccc3[nH]2)no1 [Compound A11] was tested, and the IC50 was 24 nM.
For CC(=O)Nc1cc2cc(N3CCC(O)(C(=O)NCc4cc(F)cc(Cl)c4)C3=O)ccc2oc1=O (stereo not shown) [Compound A17], the IC50 was 1100 nM.
Work on O=C(NCc1cc(F)cc(Cl)c1)[C@@]1(O)CCN(c2ccc3[nH]c(-c4nnco4)cc3c2)C1=O [Compound A9] yielded an IC50 of 14 nM.
Compound O=C(NCc1cc(F)cc(Cl)c1)[C@@]1(O)CCN(c2cccc(OC(F)(F)F)c2)C1=O [Compound A67] has an IC50 of 290 nM.
Compound O=C(NCc1cc(F)cc(Cl)c1)C1(O)CCN(C(CO)c2ccccc2)C1=O (stereo not shown) [Compound A21] has an IC50 of 4200 nM.
With O=C(NCc1cc(F)cc(F)c1)[C@@]1(O)CCN(c2cnc3[nH]ccc3c2)C1=O [Compound A78] the IC50 was 35 nM.
O=C(NCc1cc(F)cc(Cl)c1)C1(O)CCN(c2ccc3c(c2)CC(C2CC2)N3)C1=O (stereo not shown) [Compound A47] showed an IC50 of 40 nM.
For C[C@@H](c1ccccc1)N1CC[C@](O)(C(=O)NCc2cc(F)cc(Cl)c2)C1=O [Compound A3], the IC50 was 730 nM.
In the case of O=C(NCc1cc(F)cc(Cl)c1)[C@@]1(O)CCN(c2cnc3[nH]cc(F)c3c2)C1=O [Compound A53], the IC50 is reported as 39 nM.
NCCCNC(=O)[C@H](CCC(N)=O)NC(=O)c1cc2cc(N3CC[C@](O)(C(=O)NCc4cc(F)cc(Cl)c4)C3=O)ccc2[nH]1 [Compound A50] showed an IC50 of 3500 nM.
O=C(NCc1cc(F)cc(Cl)c1)C1(O)CCN(c2ccc3oc(=O)ccc3c2)C1=O (stereo not shown) [Compound A16] showed an IC50 of 3500 nM.
O=C(NCc1cc(F)cc(Cl)c1)[C@@]1(O)CCN(c2cnc3[nH]cc(Br)c3c2)C1=O [Compound A33] showed an IC50 of 5.4 nM.
With C[C@H](c1ccccc1)N1CC[C@](O)(C(=O)NCc2cc(F)cc(Cl)c2)C1=O [Compound A2] the IC50 was 7000 nM.
Work on O=C(NCc1cc(F)cc(F)c1)[C@@]1(O)CCN(c2cnc3[nH]cc(F)c3c2)C1=O [Compound A89] yielded an IC50 of 32 nM.
For Nc1ccc(N2CCC(O)(C(=O)NCc3cc(F)cc(Cl)c3)C2=O)cc1/C=C/C(=O)O (stereo not shown) [Compound A19], the IC50 was 180 nM.
Compound C[S@@](=N)(=O)c1cccc(N2CC[C@](O)(C(=O)NCc3cc(F)cc(Cl)c3)C2=O)c1 [Compound A82] has an IC50 of 310 nM.
For O=C(NCc1cc(F)cc(Cl)c1)[C@@]1(O)C(=O)N(c2ccccc2)C[C@@H]1O [Compound A87], the IC50 was 2300 nM.
O=C(NCc1cc(F)cc(Cl)c1)C1(O)CCN(c2ccc3c(c2)CS(=O)(=O)C3)C1=O (stereo not shown) [Compound A28] was tested, and the IC50 was 530 nM.
For CS(=N)(=O)c1ccc(N2CCC(O)(C(=O)NCc3cc(F)cc(Cl)c3)C2=O)cc1 (stereo not shown) [Compound A64, 3-hydroxy-1-(4-methanesulfoximinoyl-phenyl)-2-oxo-pyrrolidine-3-carboxylic acid 3-chloro-5-fluoro-benzylamide], the IC50 was 6100 nM.
O=C(NCc1cc(F)cc(Cl)c1)C1(O)CCN(c2ccc(C(O)(C(F)(F)F)C(F)(F)F)cc2)C1=O (stereo not shown) [Compound A29] was tested, and the IC50 was 1500 nM.
Work on O=C(NCc1cc(F)cc(Cl)c1)C1(O)CCN(c2ccc3[nH]c(Br)cc3c2)C1=O (stereo not shown) [Compound A22] yielded an IC50 of 130 nM.
With O=C(NCc1cc(F)cc(Cl)c1)[C@@]1(O)CCN(c2ccc(OC(F)(F)F)cc2)C1=O [Compound A65] the IC50 was 1500 nM.
In the case of O=C(NCc1cc(F)cc(Cl)c1)[C@@]1(O)CCN(c2cnc3[nH]c(Cl)c(Cl)c3c2)C1=O [Compound A62], the IC50 is reported as 180 nM.
In the case of CCNS(=O)(=O)c1ccc(N2CC[C@](O)(C(=O)NCc3cc(F)cc(Cl)c3)C2=O)cc1 [Compound A5], the IC50 is reported as 190 nM.
With O=C(NCc1cc(F)cc(Cl)c1)C1(O)CCN(c2ccn[nH]2)C1=O (stereo not shown) [Compound A15] the IC50 was 5200 nM.
O=C(NCc1cc(F)cc(Cl)c1)C1(O)CCN(c2cccc(-c3nnn[nH]3)c2)C1=O (stereo not shown) [Compound A7] showed an IC50 of 30000 nM.
Cc1nnc(-c2cc3cc(N4CC[C@](O)(C(=O)NCc5cc(F)cc(Cl)c5)C4=O)ccc3[nH]2)o1 [Compound A8] gave an IC50 of 17 nM.
O=C(NCc1cc(F)cc(Cl)c1)[C@@]1(O)CCN(c2ccc3[nH]c(-c4nnn[nH]4)cc3c2)C1=O [Compound A10] was tested, and the IC50 was 3800 nM.
Compound O=C(NCc1cc(F)cc(Cl)c1)C1(O)CCN(c2ccc(C(F)F)cc2)C1=O (stereo not shown) [Compound A60] has an IC50 of 1800 nM.
O=C(NCc1cc(F)cc(Cl)c1)C1(O)CCN(c2ccc3c(c2)CCOB3O)C1=O (stereo not shown) [Compound A74] gave an IC50 of 14 nM.
Work on O=C(NCc1cc(F)cc(Cl)c1)[C@@]1(O)CCN(c2ccc3c(c2)COB3O)C1=O [Compound A41] yielded an IC50 of 260 nM.
In the case of CN(C)C(=O)CNC(=O)[C@H](CCC(N)=O)NC(=O)c1cc2cc(N3CC[C@](O)(C(=O)NCc4cc(F)cc(Cl)c4)C3=O)ccc2[nH]1 [Compound A51], the IC50 is reported as 8100 nM.
Compound O=C(NCc1cc(F)cc(Cl)c1)C1(O)CCN(c2ccc3[nH]c(-c4ccc(Cl)cc4)nc3c2)C1=O (stereo not shown) [Compound A25] has an IC50 of 1300 nM.
Compound N/C(=N\O)c1cc2cc(N3CC[C@](O)(C(=O)NCc4cc(F)cc(Cl)c4)C3=O)ccc2[nH]1 [Compound A6] has an IC50 of 30 nM.
In the case of NCCCCNC(=O)c1cc2cc(N3CC[C@](O)(C(=O)NCc4cc(F)cc(Cl)c4)C3=O)ccc2[nH]1 [Compound A35], the IC50 is reported as 51 nM.
O=C(NCc1cc(F)cc(Cl)c1)[C@@]1(O)CCN(c2cccc(S(=O)(=O)N3CCNCC3)c2)C1=O [Compound A1] showed an IC50 of 1000 nM.
For NC(=O)c1ccc2cc(N3CCC(O)(C(=O)NCc4cc(F)cc(Cl)c4)C3=O)ccc2n1 (stereo not shown) [Compound A83], the IC50 was 500 nM.
CC(C)C(NC(=O)CN1CCC(O)(C(=O)NCc2cc(F)cc(Cl)c2)C1=O)C(=O)N(C)C (stereo not shown) [Compound A46] was tested, and the IC50 was 45 nM.
COc1ccc(CN2c3ccc(N4CCC(O)(C(=O)NCc5cc(F)cc(Cl)c5)C4=O)cc3CS2(=O)=O)cc1 (stereo not shown) [Compound A43] gave an IC50 of 820 nM.
Compound COc1ccc(Cn2ccc3cc(N4CC[C@](O)(C(=O)NCc5cc(F)cc(F)c5)C4=O)cnc32)cc1 [Compound A76] has an IC50 of 260 nM.

Same assay, conditions: HUVEC, reference compounds run in every assay, expected value, read-out: expected value (EC50) of reference compound
CO[C@@H]1[C@H](OC(=O)NC(=O)CCl)CC[C@]2(CO2)[C@H]1[C@@]1(C)O[C@@H]1CC=C(C)C [MSC1902850A, TNP-470, reference compound] was tested, and the EC50 was 0.8 nM.
